# Source: patent publication US20050089473A1, “Potassium channel mediated delivery of agents through the blood-brain barrier” (Cedars-Sinai Medical Center, priority 2003, published 2005)
# Structures can show the parent of a compound that is named as a salt.
# Tests used:
# GBM and RG2 brain tumors = assay: GFP-adenoviral and erbB-2 antibody delivery across the BTB; type: in vivo, rat
# Experimental: GFP-Adv constructs were prepared as described by Smith et al. (Smith, G. M., Berry, R. L., Yang, J., and Tanelian, D. Electrophysiological analysis of dorsal root ganglion neurons pre- and post-coexpression of green fluorescent protein and functional 5-HHT3 recepter. J. Neurophysiol. 77:3115-3121, 1997) with slight modifications. GFP gene was first cloned into a shuttle vector, pAdTrack-CMV, and the resultant plasmid was linearized by digesting it with restriction endonuclease Pipe I, and subsequently co-transformed into E. Coli cells with an adenoviral backbone plasmid, pAdEasy-1. Recombinant plasmids were transfected into 293 cells. The presence of recombinant adenoviruses was verified by RT-PCR. GFP-Adv (1×10^9 pfu/ml) was infused intracarotidly (i.c.) with or without MS in rats with implanted GBM. Neu rabbits polyclonal and Her-2 MAb, which are specific for rat and human erbB-2 receptors, respectively, were used. […] Her-2 MAbs bound to Her-2 receptors, in vivo was detected by incubating rat brain cryosections as per the manufacturer's (Molecular Probes, OR) procedure with Alexa Flour-647 conjugated secondary antibody (Zecon labeling kit) that specifically binds to the IgG1 fragment of Her-2 MAb. Neu antibody binding to erbB-2 receptors in RG2 brain tumor sections was detected using anti-rabbit IgG conjugated with TRITC. […]
# KATP channels = assay: Membrane potential assay of KATP channel activity; type: cell-based, human; details: RBEC, HBMVEC, RG2 and GBM cells
# Experimental: Functional activities of putative KATP channels in HBMVEC and GBM cells were measured by detecting changes in voltage across the cell membrane as described earlier (Ningarsj, N. S., Rao, M., Hashizume, K., Asotra, K., and Black, K. L. Regulation of blood-brain tumor barrier permeability by calcium-activated potassium channels J. Pharmacol. Exp. Ther., 301:838-851, 2002). A membrane potential assay kit (Molecular Devices, Sunnyvale, Calif.) provided a fast, simple and consistent mix-and-read procedure. In brief, HBMVEC and GBM cells obtained from cell passages 2-5 was suspended in 5 ml of growth medium. In two separate experiments, the cell density was adjusted to 1×10^3 cells/well and coated in sterile, clear bottom, blank 96-well plates (Corning, Inc., Acton, Mass.), pre-coated with poly L-Lysine, and allowed to achieve a monolayer within 24 h. The monolayer cells were incubated with the membrane potential assay kit reagents for 30 min and read directly by FLEXstation. The anionic pchemiometric dye that traverses between cells and the extracellular solution in a membrane potential-dependent manner serves as an indicator of vasomodulator-induced voltage changes across the cell membrane. […] Additionally, the effects of the optimum dose (10 μM) of MS and glibenclamide (100 nM) on KATP channels activity in HBMVEC and GBM cells were determined.
# [1] = test system: intracranial human glial tumors; assay: Survival study, nude mice with intracranial human glial tumors; type: in vivo, mouse; details: i.v., three consecutive doses for three days
# Experimental: GBM-xenograft rat and mouse models were developed by intracranially implanting primary GBM cells isolated from patient brain tumor tissue. […] To investigate whether MS administration by intracarotid (i.c.) and intravenous (i.v.) routes, increases BTB permeability to different tracers, and enhances delivery to brain tumor, permeability studies were performed.
# Nude mice were intracranially implanted with cells. The tumor was allowed to grow for 7 days before treatment was initiated.
smiles,measurement,setting,value
"Nc1cc(N2CCCCC2)nc(N)[n+]1OS(=O)(=O)[O-] [MS, minoxidil sulfate]",Delivery of Her-2 MAb and Neu antibody to brain tumor,"GBM and RG2 brain tumors; MS 30 μg/kg/min i.c. 15 min, then antibody 1 mg/kg",enhanced delivery of Her-2 MAb selectively to GBM and Neu to RG2
same,Delivery of adv-GFP to brain tumor,"GBM and RG2 brain tumors; MS i.c. with GFP-Adv 1×10^9 pfu/ml, GBM nude rats",enhanced adv-GFP delivery to brain tumors
same,Membrane potential dye fluorescence intensity,KATP channels,dose-dependent decrease
same,Mean survival,[1],27.09 ± 8.7 days
